Measured values as given in PubChem BioAssay (NCI).
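The compound was tested at five concentrations on cells cultured in 96-well plates, with a 48-hour exposure period. Abbreviation: GI50, concentration required for 50% inhibition of growth. TGI denotes the concentration required for complete inhibition of growth.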

Columns and labels:
Assay in all cases: NCI tumour cell line growth inhibition, 48 h
ACHN renal = tested on: ACHN renal
CAKI-1 renal = tested on: CAKI-1 renal
HL-60(TB) leukemia = tested on: HL-60(TB) leukemia
IGROV1 ovarian = tested on: IGROV1 ovarian
KM12 colon = tested on: KM12 colon
MALME-3M melanoma = tested on: MALME-3M melanoma
SF-539 CNS = tested on: SF-539 CNS
SK-MEL-28 melanoma = tested on: SK-MEL-28 melanoma
SK-OV-3 ovarian = tested on: SK-OV-3 ovarian
SNB-75 CNS = tested on: SNB-75 CNS

SMILES | GI50 (ACHN renal) [µM] | TGI (ACHN renal) [µM] | GI50 (CAKI-1 renal) [µM] | TGI (CAKI-1 renal) [µM] | GI50 (HL-60(TB) leukemia) [µM] | TGI (HL-60(TB) leukemia) [µM] | GI50 (IGROV1 ovarian) [µM] | TGI (IGROV1 ovarian) [µM] | GI50 (KM12 colon) [µM] | TGI (KM12 colon) [µM] | GI50 (MALME-3M melanoma) [µM] | TGI (MALME-3M melanoma) [µM] | GI50 (SF-539 CNS) [µM] | TGI (SF-539 CNS) [µM] | GI50 (SK-MEL-28 melanoma) [µM] | TGI (SK-MEL-28 melanoma) [µM] | GI50 (SK-OV-3 ovarian) [µM] | TGI (SK-OV-3 ovarian) [µM] | GI50 (SNB-75 CNS) [µM] | TGI (SNB-75 CNS) [µM]
N=C(N=C(N)N)N1CCN(c2ccncc2)CC1 | > 1000 | > 1000 | > 1000 | > 1000 | > 1000 | > 1000 | > 1000 | > 1000 | > 1000 | > 1000 | > 1000 | > 1000 | > 1000 | > 1000 | > 1000 | > 1000 | > 1000 | > 1000 | > 1000 | > 1000
Cn1c(=O)c(Oc2ccccc2F)cc2cnc(NC3CCOCC3)nc21 | > 25 | > 25 | > 25 | > 25 | > 25 | > 25 | > 25 | > 25 | > 25 | > 25 | > 25 | > 25 | > 25 | > 25 | > 25 | > 25 | > 25 | > 25 | > 19.8 | > 25
CCCCCCCCCCN(CCCCCCCCCC)CC(=O)c1ccc2cc(Br)c3ccccc3c2c1 | 1.68 | 3.19 | 1.7 | 4.43 | 2.01 | 4.22 | 1.84 | 3.6 | 1.88 | 3.66 | 1.71 | 3.57 | 2.05 | 3.7 | 1.84 | 3.32 | 4.94 | 17.6 | 2.1 | 5.45
OCCSCc1ccccc1 |  | > 100 |  | > 100 |  | > 100 |  | > 100 |  | > 100 |  | > 100 |  | > 100 |  | > 100 |  | > 100 |  | > 100
C#CC1(O)C(COP(=O)(O)OC2CC(n3cc(F)c(=O)[nH]c3=O)OC2CO)OC(n2ccc(N)nc2=O)C1O (stereo not drawn) | < 0.01 |  | < 0.01 | 0.0813 | < 0.0181 |  | < 0.0139 | > 35.9 | < 0.01 | > 29 | 0.117 | 5.07 | < 0.0105 | 0.22 | 0.0474 | 1.72 | 0.0735 | > 100 | < 0.0169 | 1.18
NC(=O)c1cc(Br)cc(C2CCCCC2)c1O | 12.9 | 25.5 | 6.15 | 20.3 | 20.9 | 46.3 | 12.4 | 25.9 | 11.7 | 24.5 | 19.6 | 35.9 | 15.2 | 30.2 | 14 | 27.3 | 17.2 | 31.1 | 11.9 | 25.9
CN1NC2(CCCCC2)ON=C1c1ccccc1 |  | > 100 |  | > 100 |  | > 100 |  | > 100 |  | > 100 |  | > 100 |  | > 100 |  | > 100 |  | > 100 |  | > 100
COc1ccc2c(Nc3ccc(NS(C)(=O)=O)cc3)c3ccccc3nc2c1 | 0.217 | 1.58 | 0.45 | 5.64 | 0.427 | 4.45 | 0.418 | 16.7 | 0.533 | 9.19 | 0.652 | 2.38 | 0.525 | 2.28 | 1.38 | 3.45 | 0.364 | 5.26 | 0.718 | 2.12
CC1=C[C@H]2c3c(c(O)c(O)c4oc5ccccc5c(=O)c34)[C@H](c3cc(O)c(O)c4oc5ccccc5c(=O)c34)[C@H]2C(C)(C)C1 | 0.863 | 9.22 | 0.675 | 8.34 | 3.22 | 10.8 | 1.05 | 8.09 | 1.07 | 9.53 | 2.3 | 11.1 | 1.1 | 4.89 | 1.86 | 13.3 | 2.5 | 14.2 | 0.637 | 6.59
CCN1C(=S)N(CC)C2C1NC(=S)N2/N=C/C=C/c1ccccc1 (stereo not drawn) | 4.87 | 18.9 | 0.776 | 18.6 | 0.387 | 1.79 | 2.15 | 16.3 | 1.21 | 14.7 | 2.09 | 17.8 | 1.67 | 5.4 | 4.81 | 21 | 2.4 | 14.7 | 1.09 | 5.65
CC(=O)O[C@H]1CC[C@@]2(C)C(=CC[C@H]3[C@@H]4C/C(=C\c5cccc(OCCN6CCOCC6)c5)[C@H](OC(C)=O)[C@@]4(C)CC[C@@H]32)C1 | 13.8 | 42.9 | 12.2 | 59 | 3.61 | 14.6 | 25.6 | 80.2 | 3.84 | 14.2 | 11.4 | 23.5 | 3.64 | 13.9 | 5.48 | 17.6 | 6.85 | 34 | 3.85 | 22.8
CC(=O)O[C@H]1CC[C@@]2(C)C(=CC[C@H]3C4=CC=C(C(C)=O)[C@@]4(C)CCC32)C1 (stereo partly drawn) |  | > 100 |  | > 100 |  | > 100 |  | > 100 |  | > 100 |  | > 100 |  | > 100 |  | > 100 |  | > 100 |  | > 100
COc1ccc(/C=C/c2nc(NCCCN(C)C)c3ccccc3n2)cc1 | 17.1 | 31.7 | 16.5 | 33.7 | 1.71 | 3.86 | 3.39 | 10.6 | 1.73 | 3.13 | 1.62 | 3.18 | 1.69 | 3.15 | 4.57 | 9 | 2.51 | 6.3 | 1.34 | 2.88
CCOc1cc2c(NCCCN(CCO)CCO)ncnc2c(OCC)c1OCC |  | > 100 |  | > 100 |  | > 100 |  | > 100 |  | > 100 |  | > 100 |  | > 100 |  | > 100 |  | > 100 |  | > 100
